This note sets out measurements from ChEMBL document CHEMBL1154244, “Isoflavonoids from Erythrina poeppigiana: evaluation of their binding affinity for the estrogen receptor” (J Nat Prod, 2009).

For the assay, the species on record is Homo sapiens. Briefly: Selectivity ratio of IC50 for human recombinant ERalpha to IC50 for human recombinant ERbeta.

Turning to `CCCc1c(-c2ccc(O)cc2)nn(-c2ccc(O)cc2)c1-c1ccc(O)cc1`, the Ratio IC50 was 36.
On to `COc1ccc2c(c1CC=C(C)C)O[C@H]1c3ccc(O)cc3OC[C@@]21O`, for which the Ratio IC50 came to 2.2.
Then `CC1(C)C=Cc2c(cc3occ(-c4ccc(O)cc4)c(=O)c3c2O)O1`, with 0.7; and `COc1cc(O)c2c(=O)c(-c3cc(CC=C(C)C)c(O)cc3O)coc2c1`, with 0.7.
The result for `CC(C)=CCc1c(O)cc2occ(-c3ccc(O)cc3)c(=O)c2c1O` reads 0.6; that for `COc1cc(O)c2c(=O)c(-c3cc4c(cc3O)OC(C)(C)C(O)C4)coc2c1` (stereo not drawn), 16.
The result for `COc1cc(O)c2c(=O)c(-c3ccc(O)c(CC(O)=C(C)C)c3)coc2c1` reads 2.3; that for `CC(C)=CCc1cc(-c2coc3cc(O)cc(O)c3c2=O)ccc1O`, 0.6.
